From ChEMBL document CHEMBL4428132, “Application of Fragment-Based de Novo Design to the Discovery of Selective Picomolar Inhibitors of Glycogen Synthase Kinase-3 Beta” (J Med Chem, 2016)

Tests used:
[1] = target: T1, Glycogen synthase kinase-3 beta (Homo sapiens, UniProt P49841); experiment: Inhibition of His-tagged full length human recombinant GSK3beta using [YRRAAVPPSPSLSRHSSPHQ-(pS)EDEEE] substrate and pre-incubarted for 20 mins before [gamma-33P]ATP addition and measured after 2 hrs by radiometric kinase assay
Target sequence in this assay (P49841 whole entry): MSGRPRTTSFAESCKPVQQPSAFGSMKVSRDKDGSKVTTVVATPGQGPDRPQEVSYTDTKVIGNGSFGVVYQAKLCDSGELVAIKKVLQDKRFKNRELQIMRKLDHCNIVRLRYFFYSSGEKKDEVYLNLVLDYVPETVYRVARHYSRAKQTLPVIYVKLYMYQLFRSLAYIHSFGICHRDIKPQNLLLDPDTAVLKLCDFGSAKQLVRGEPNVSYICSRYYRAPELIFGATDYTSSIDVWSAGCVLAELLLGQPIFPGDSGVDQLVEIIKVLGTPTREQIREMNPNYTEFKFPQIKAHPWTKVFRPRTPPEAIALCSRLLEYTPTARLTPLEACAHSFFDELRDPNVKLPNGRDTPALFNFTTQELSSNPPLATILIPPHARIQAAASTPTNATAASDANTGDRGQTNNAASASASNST

SK-BR-3 = experiment: Antiproliferative activity against human SKBR3 cells by MTT assay; type: functional, cell-based
MDA-MB-231 = experiment: Antiproliferative activity against human MDA231 cells by MTT assay; type: functional, cell-based
MCF7 = experiment: Antiproliferative activity against human MCF7 cells by MTT assay; type: functional, cell-based
[2] = target: T1, Glycogen synthase kinase-3 beta; experiment: Inhibition of GSK3beta (unknown origin) assessed as remaining enzyme activity at 1 uM
Target sequence in this assay (P49841 whole entry, looked up): as the sequence (P49841 whole entry) above

[3] = target: Cyclin-dependent kinase 2 (Homo sapiens) (UniProt P24941); experiment: Inhibition of CDK2 (unknown origin) assessed as remaining enzyme activity at 1 uM
[4] = target: Aurora kinase B (Homo sapiens) (UniProt Q96GD4); experiment: Inhibition of Aurora kinase B (unknown origin) assessed as remaining enzyme activity at 1 uM
Chain of Aurora kinase B (Homo sapiens) (Q96GD4 whole entry): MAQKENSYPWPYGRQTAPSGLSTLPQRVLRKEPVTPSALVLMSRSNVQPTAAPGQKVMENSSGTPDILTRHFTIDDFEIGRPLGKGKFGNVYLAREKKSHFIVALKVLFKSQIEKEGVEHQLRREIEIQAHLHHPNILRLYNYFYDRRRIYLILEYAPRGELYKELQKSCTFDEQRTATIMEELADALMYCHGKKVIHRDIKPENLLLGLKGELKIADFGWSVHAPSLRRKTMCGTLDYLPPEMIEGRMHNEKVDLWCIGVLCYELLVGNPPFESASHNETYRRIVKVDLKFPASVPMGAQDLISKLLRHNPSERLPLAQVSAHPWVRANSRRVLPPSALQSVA

## O=C(/C=C/c1cnc2[nH]cc(-c3ccccc3)c2c1)NCCc1c[nH]c2ccccc12
[1]
  IC50: 356 nM

## CS(=O)(=O)c1ccc(-c2c[nH]c3ncc(/C=C/C(=O)NCc4ccncc4)cc23)cc1
[1]
  IC50: 220 nM

## O=C(CNC(=O)c1ccc2noc(-c3ccccc3)c2c1)NCCc1c[nH]c2ccccc12
[1]
  IC50: > 50000 nM

## O=C(/C=C/c1cnc2[nH]cc(-c3ccc(F)cc3)c2c1)NCc1ccncc1
[1]
  IC50: 22.8 nM

## O=C(C/C=C/c1cnc2[nH]cc(-c3ccccc3)c2c1)NCCc1c[nH]c2ccccc12
[1]
  IC50: 3760 nM

## O=C(/C=C/c1cnc2[nH]cc(-c3ccccc3)c2c1)NCc1nc2ccccc2[nH]1
[1]
  IC50: 62.1 nM

## O=C(/C=C/c1cnc2[nH]cc(-c3ccccc3)c2c1)NCCc1ccncc1
[1]
  IC50: 43.5 nM

## O=C(/C=C/c1cnc2[nH]cc(-c3cccnc3)c2c1)NCc1ccncc1
[1]
  IC50: 16.5 nM

## O=C(/C=C/c1cnc2[nH]cc(-c3ccccc3)c2c1)NCc1ccc2[nH]ccc2c1
[1]
  IC50: 462 nM

## O=C(CCc1cnc2[nH]cc(-c3ccccc3)c2c1)NCCc1c[nH]c2ccccc12
[1]
  IC50: 1030 nM

## O=C(/C=C/c1cnc2[nH]cc(-c3ccccc3)c2c1)NCc1ccccn1
[1]
  IC50: 167 nM

## O=C(/C=C/c1cnc2[nH]cc(-c3ccccc3)c2c1)NCc1ccncc1
[1]
  IC50: 3.59 nM

## NC(=O)c1ccc(-c2c[nH]c3ncc(/C=C/C(=O)NCc4ccncc4)cc23)cc1
[1]
  IC50: 4.43 nM

## O=C(CNC(=O)c1cnc2[nH]cc(-c3ccccc3)c2c1)NCCc1c[nH]c2ccccc12
[1]
  IC50: 1450 nM

## O=C(C/C=C/c1cnc2[nH]cc(-c3ccccc3)c2c1)NCCc1ccccc1
[1]
  IC50: > 50000 nM

## O=C(/C=C/c1cnc2[nH]cc(-c3ccccc3)c2c1)NCc1ccc2c(c1)CCO2
[1]
  IC50: 103 nM

## O=C(CNC(=O)c1cnc2[nH]cc(-c3ccncc3)c2c1)NCCc1c[nH]c2ccccc12
[1]
  IC50: 994 nM

## O=C(/C=C/c1cnc2[nH]cc(-c3ccccc3)c2c1)NCCc1ccccc1
[1]
  IC50: 248 nM

## O=C(/C=C/c1cnc2[nH]cc(-c3ccccc3)c2c1)NCCc1c[nH]c2ncccc12
[1]
  IC50: 128 nM

## COc1ccc(-c2c[nH]c3ncc(/C=C/C(=O)NCc4ccncc4)cc23)cc1
[1]
  IC50: 0.508 nM
SK-BR-3
  IC50: > 10000 nM
MDA-MB-231
  IC50: > 10000 nM
MCF7
  IC50: > 10000 nM
[2]
  Activity: 1.2%
[3]
  Activity: 97%

## O=C(CNC(=O)c1ccc2[nH]cc(-c3ccncc3)c2c1)NCCc1c[nH]c2ccccc12
[1]
  IC50: 33800 nM

## O=C(/C=C/c1cnc2[nH]cc(-c3ccncc3)c2c1)NCc1ccncc1
[1]
  IC50: 2.75 nM

## O=C(/C=C/c1cnc2[nH]cc(-c3ccccc3)c2c1)NCc1ccco1
[1]
  IC50: 77.1 nM

## O=C(/C=C/c1cnc2[nH]cc(-c3ccccc3)c2c1)NCCN1CCOCC1
[1]
  IC50: 45.7 nM

## O=C(/C=C/c1cnc2[nH]cc(-c3ccccc3)c2c1)NCc1cccnc1
[1]
  IC50: 64.2 nM

## CC(=O)c1ccc(-c2c[nH]c3ncc(/C=C/C(=O)NCc4ccncc4)cc23)cc1
[1]
  IC50: 1.42 nM

## N#Cc1ccc(-c2c[nH]c3ncc(/C=C/C(=O)NCc4ccncc4)cc23)cc1
[1]
  IC50: 63.1 nM

## CC(=O)c1ccc(-c2c[nH]c3ncc(/C=C/C(=O)NCCc4ccccn4)cc23)cc1
[1]
  IC50: 1.37 nM
SK-BR-3
  IC50: > 10000 nM
[4]
  Activity: 23%
MDA-MB-231
  IC50: > 10000 nM
MCF7
  IC50: > 10000 nM
[2]
  Activity: 3.4%
[3]
  Activity: 85%
